{"source": "patent US20220260566A1", "about": "“IMMUNITY MECHANISM AND THERAPEUTIC DRUG FOR GASTROINTESTINAL DISEASES” (GUANGZHOU WOMEN AND CHILDREN'S MEDICAL CENTER, priority 2018, published 2022)", "key": {"[1]": {"system": "CD68+ macrophages and TNF-α in the colonic mucosa", "assay": "Immunofluorescence of colonic mucosa before and after treatment: CD68+ macrophages, TNF-α, PDE4B", "type": "in vivo, human", "conditions": "for macrophage invasion in colonic mucosa: children with colitis or IBD, after vs before methylprednisolone or anti-TNF-α, FIG. 6C; for PDE4B: summary of immunological results after treatment"}, "CD39": {"system": "CD39", "assay": "Immunofluorescence of colonic mucosa before and after treatment: CD39 expression", "type": "in vivo, human", "description": "(§1) Use formalin-fixed and paraffin-embedded paraffin blocks to prepare 3 um tissue sections. After deparaffinization, blocking antibodies (PBS containing 5% normal donkey or goat serum and 0.3% Triton X-100) are incubated for 1 hour at room temperature, and washed with PBS Then incubate the primary antibody (CD39, CD41, pT71-ATF2 or pS133-CREB) overnight in a 4 C dark humidified box. Then, after washing with PBS, incubate the secondary antibodies (goat anti-mouse IgG1 combined with AF488 and goat anti-rabbit IgG combined with Cy3) for 1 hour at room temperature, and then incubate the anti-quencher containing DAPI. Then, use the Lycra automatic inverted fluorescence microscope to observe and take pictures (20×0.75), and use the Lycra X image analysis software to process the brightness, luminosity, contrast and color balance of the image to restore the image as much as possible. For each observation condition, 4-5 areas in each mucosal section were randomly selected for observation, and the CD41 aggregation (fluorescence diameter greater than 7 μm) was measured and counted using the card X image analysis software."}, "[2]": {"system": "children with colitis or IBD", "assay": "Children with colitis or IBD treated with methylprednisolone or anti-TNF-α antibody: colonoscopy and clinical status", "type": "in vivo, human"}, "[3]": {"system": "platelet aggregation (CD41 clusters) in the colonic mucosa", "assay": "Immunofluorescence of colonic mucosa before and after treatment: platelet aggregation (CD41 clusters)", "type": "in vivo, human", "conditions": "children, after vs before dipyridamole treatment", "description": "as §1"}, "children with colitis": {"system": "children with colitis", "assay": "Clinical trial of dipyridamole in children with colitis (Table 5, 23 patients)", "type": "in vivo, human", "description": "In the following, it is investigated whether the cAMP activation pathway regulates CD39 expression in T cells. […] The clinical trial was approved by the Ethical Review Committee of Guangzhou Women and Children's Medical Center and registered in the China Clinical Trial Registration Center (ChiCTR1800019803). All patients or family members signed an informed consent form."}, "[4]": {"system": "subjects with colitis confirmed by endoscopy and subjects with undefined IBD (IBDU)", "assay": "Clinical trial of dipyridamole in 9 children with endoscopy-confirmed colitis or undefined IBD (Table 6)", "type": "in vivo, human", "description": "The inventors also conducted clinical trial studies in subjects with colitis confirmed by endoscopy and subjects with undefined IBD (IBDU) (Table 6).\nIn Table 6, PLT stands for platelet count, HGB stands for hemoglobin, and ALB stands for albumin."}, "[5]": {"system": "CD39 expression in CD8+ T cells", "assay": "CD39 expression during CD8+ T cell activation", "type": "cell-based", "conditions": "dose-dependent manner"}, "activated ATF2 and CREB": {"system": "activated ATF2 and CREB", "assay": "Immunofluorescence of colonic mucosa: activated ATF2 and CREB co-expressed with CD39", "type": "in vivo, human", "conditions": "children, after vs before dipyridamole treatment", "description": "[Worded in the source for another target; this target is reported under the same test.] as §1, with “[…]-ATF2” for “pT71-ATF2”, “[…]-CREB)” for “pS133-CREB)”, “Lycra X” left out"}, "[6]": {"system": "HEK 293T cells stably transfected with the cAMP reporter gene GloSensor-22F cAMP plasmid", "assay": "cAMP reporter assay (GloSensor-22F cAMP plasmid)", "type": "cell-based", "conditions": "HEK 293T reporter cells; 3 independent experiments; forskolin as positive control", "description": "FIG. 4: Highly inflammatory macrophage and dendritic cell (DC) infiltration in colitis and IBD patients compared to control subjects. […] The red and navy blue dots represent individual genes that pass the P value (≤0.05) and log 2 (Fold Change) (red, ≥1; navy blue, ≤−1) threshold. […] Forskolin, which increases the concentration of cAMP by activating adenylate cyclase, was used as a positive control. […] Colonic mucosa sections were stained with anti-CD68 to mark macrophages, and stained with NLRP3 and ASC for inflammasome. […] The P value was calculated using the Mann-Whitney U test, *, P<0.05****, P<0.0001. (D) Heat map showing the relative expression of colitis/IBD risk genes in myeloid cells."}, "[7]": {"system": "CD39 in colonic intraepithelial T cells", "assay": "CD39 expression of immune cells in DSS colitis model (flow cytometry)", "type": "in vivo, mice", "description": "From the second day of treatment, DSS was added to drinking water (2.5%) for 7 days. The control mice were given regular food and water. In order to analyze colon immune cells, the present invention harvests the colon and removes excess fat. After washing with ice-cold PBS, the colon was cut into pieces approximately 0.3-0.5 cm in length. After gentle rotation in the dissociation solution (HBSS without Ca/Mg, with 5 mM EDTA and 2% FBS) at 37° C. for 40 minutes, the intraepithelial lymphocytes (IEL) were pelleted, washed and resuspended in staining buffer (PBS 2% FBS). The remaining undigested colon tissue samples were gently rotated in the digestion solution (RPMI1640 containing 2% FBS, 2 mg/mL collagenase IV, 0.4 U/mL dispase and 1 μg/mL DNase) at 37° C. for 45 minutes. Pellet lamina propria lymphocytes (LPL), wash and resuspend in staining buffer. T cell plates (CD45-APC-Cy7, CD3-BV711, […]-Cy7, CD8-BV785, γδT-BV421 and CD4-APC) or myeloid plates (MHC II-BV550, CD11b-BV510 and CD39-PE-Cy7) were stained on ice for 30 minutes, and then analyzed on a FACSAria SORP flow cytometer (BD Science)."}, "[8]": {"system": "DSS-induced acute colitis", "assay": "DSS-induced acute colitis model", "type": "in vivo, C57BL/6J mice", "description": "Male C57BL/6J mice (20-22 g), six to eight weeks old, were purchased from Guangzhou University of Traditional Chinese Medicine. The mice were given regular food and water before the experiment. Weight-matched mice were used in all studies Animal research was approved by the Animal Care and Utilization Committee of Guangzhou Medical University (permit number: 2019-471) and was conducted in accordance with institutional guidelines.\nThe control mice were given regular food and water. The mice were monitored daily and if the weight loss exceeded 20%, they were euthanized.\nFor hematoxylin and eosin (H&E) staining, the colon was fixed in 4% paraformaldehyde (PFA) for 24 hours and embedded in paraffin. Prepare sections (3 μm) and deparaffinize before staining\nTo detect platelet aggregation in colon slices, the tissue was fixed in 4% PFA for 24 hours, cryoprotected in 30% sucrose for 48 hours, and then embedded in an Optimal Cutting Temperature (O.C.T.) compound. The frozen sections (5 μm) were washed, blocked with 10% goat serum, and incubated with anti-mouse CD41-FITC (133903, BioLegend, CA, USA) at 4° C. overnight.\nAfter washing with PBS to remove unbound antibodies, the sections were fixed with […] anti-fading fixation medium (H-1200, Vector Laboratories, CA, USA) with DAPI for nuclear staining The immunofluorescence staining and image processing were performed as described above. Platelet aggregates are defined as CD41+ clusters (diameter >7 μm). Leica X image analysis software (Leica, Hamburg, Germany) and ImageJ software (National Institutes of Health, Maryland, USA) were used to count and analyze the number of CD41+ clusters per square millimeter. For each colon section, platelet aggregation in 5 randomly selected areas was recorded.\nIn order to analyze the expression of cytokines, the residual mesenteric fat in the colon was removed, weighed and dispersed in a single cell suspension with 1 mL of PBS. After centrifugation at 1000×g for 10 minutes at 4° C., the supernatant was taken to determine the concentration of TNF-α, IL-1β and IL-6 by ELISA."}, "[9]": {"system": "TNF-α in monocytes and macrophages", "assay": "TNF-α expression in monocytes and macrophages in vitro", "type": "cell-based", "conditions": "in vitro and in vivo"}, "[10]": {"conditions": "children, after vs before dipyridamole (n=7), FIG. 7H"}, "[11]": {"conditions": "dipyridamole 10 mg/kg twice a day vs DSS alone, 3% DSS"}, "[12]": {"conditions": "dipyridamole 10 mg/kg vs DSS alone"}}, "note": "“Also recorded” adds a separate entry of the source."}
{"molecule": "anti-TNF-α: Anti-TNF-α drug (Infliximab), anti-TNF-α antibody biologic used to treat colitis and IBD", "values": [{"measurement": "macrophage invasion in colonic mucosa", "setting": "[1]", "value": "no effect"}, {"measurement": "expression of CD39 (CD39 IET) in colonic mucosa", "setting": "CD39; children with colitis or IBD, after vs before methylprednisolone (n=5) or anti-TNF-α (n=6), FIG. 6C", "value": "no effect"}, {"measurement": "appearance of the colon (colonoscopy)", "setting": "[2]; after vs before treatment, FIG. 6B", "value": "improved"}, {"measurement": "clinical status / clinical symptoms", "setting": "[2]; patients with inflammatory bowel disease, for methylprednisolone some patients only", "value": "improved"}]}
{"molecule": "C[C@H]1C[C@@H]2[C@H]([C@@H](O)C[C@@]3(C)[C@H]2CC[C@]3(O)C(=O)CO)[C@@]2(C)C=CC(=O)C=C12", "note": "[methylprednisolone]", "values": [{"measurement": "macrophage invasion in colonic mucosa", "setting": "[1]", "value": "no effect"}, {"measurement": "PDE4B", "setting": "[1]", "value": "no effect"}]}
{"molecule": "OCCN(CCO)c1nc(N2CCCCC2)c2nc(N(CCO)CCO)nc(N3CCCCC3)c2n1", "note": "[dipyridamole]", "values": [{"measurement": "TNF-α expression in colonic mucosa", "setting": "[1]; [10]", "value": "significantly reduced"}, {"measurement": "macrophage infiltration in colonic mucosa", "setting": "[1]; [10]", "value": "significantly reduced"}, {"measurement": "PDE4B", "setting": "[1]", "value": "inhibited"}, {"measurement": "platelet aggregation in the colonic mucosa (CD41 clusters)", "setting": "[3]", "value": "significantly reduced"}, {"measurement": "Severity score, Post-treatment, median", "setting": "children with colitis; after dipyridamole 3-5 mg/kg/day, treatment duration median 4 (2-12) weeks, 23 children, range 0-5, P < 0.0001 vs pre-treatment", "value": 1}, {"measurement": "Platelet counts, Post-treatment, median", "setting": "children with colitis; after dipyridamole 3-5 mg/kg/day, 23 children, range 217-497, reference range 140-440, P = 0.0001 vs pre-treatment", "value": "296 10^9/L"}, {"measurement": "clinical severity score after treatment", "setting": "children with colitis; after vs before dipyridamole (FIG. 3d)", "value": "significantly reduced"}, {"measurement": "colon lining (colonoscopy appearance)", "setting": "children with colitis; after vs before dipyridamole (FIG. 3d, 3e)", "value": "significantly improved"}, {"measurement": "Severity score, Pre-treatment, median", "setting": "children with colitis; baseline before dipyridamole, 23 children, range 4-14, scoring criteria of Table 4", "value": 9}, {"measurement": "Platelet counts, Pre-treatment, median", "setting": "children with colitis; baseline before dipyridamole, 23 children, range 235-790, reference range 140-440", "value": "370 10^9/L"}, {"measurement": "adverse reactions", "setting": "children with colitis; children with colitis, dipyridamole 3-5 mg/kg/day", "value": "no reports of adverse reactions"}, {"measurement": "clinical, endoscopic and histological severity scores", "setting": "[4]; after vs before dipyridamole (FIG. 7E, Table 6)", "value": "significantly improved"}, {"measurement": "adverse reactions", "setting": "[4]; dipyridamole 3-5 mg/kg/day for 8 to 12 weeks", "value": "No obvious adverse reactions"}, {"measurement": "CD39 expression during CD8+ T cell activation", "setting": "[5]", "value": "significantly increased"}, {"measurement": "expression of CD39 in CD8 and CD4 T cells and macrophages of colonic mucosa", "setting": "CD39; children, after vs before dipyridamole treatment", "value": "increase"}, {"measurement": "co-localized activated transcription factors ATF2 and CREB with CD39 in colonic mucosa", "setting": "activated ATF2 and CREB", "value": "increased; also recorded: enhanced"}, {"measurement": "cytoplasmic cAMP concentration", "setting": "[6]", "value": "significantly increase"}, {"measurement": "CD39 expression in colonic epithelial CD4, CD8 and γδT cells", "setting": "[7]; dipyridamole 5 mg/kg or 50 mg/kg for 8 days, 2.5% DSS, dose-dependent manner", "value": "significantly increased"}, {"measurement": "expression of CD39 in CD4, CD8 and γδT cells", "setting": "[7]; intraperitoneal injection of dipyridamole at 50 mg/kg", "value": "significantly increased"}, {"measurement": "body weight", "setting": "[8]; [11]", "value": "significantly increased"}, {"measurement": "colon length", "setting": "[8]; [11]", "value": "significantly increased"}, {"measurement": "epithelial integrity and structure (HE stained colon sections)", "setting": "[8]; [12]", "value": "improved"}, {"measurement": "platelet aggregation in colonic mucosa (CD41+ clusters)", "setting": "[8]; [12]", "value": "reduced"}, {"measurement": "TNF-α expression in colon mucosa", "setting": "[8]; dipyridamole vs DSS alone, ELISA", "value": "reduced"}, {"measurement": "expression of TNF-α in monocytes and macrophages", "setting": "[9]", "value": "inhibit"}]}
